# Assay results reported in patent publication US20230138246A1, “USE OF DIHYDROBERBERINE OR ITS DERIVATIVES FOR ANTI-AGING” (NANJING NUTRABUILDING BIO-TECH CO., LTD., priority 2021, published 2023).
# Legend:
# 2BS cells [1] = assay: senescence-associated β-galactosidase (SA-β-gal) assay in 2BS cells; format: cell-based, human; conditions: 2BS cells PD45, 0.300 μg/ml DHB; PD 45-DMEM group about 55%, PD 45 group about 60%
# Protocol: Human diploid fibroblast 2BS and WI38 cells were isolated from fetal lung fibroblast tissue. These cell lines were purchased from commercially available sources. Cells were grown in Dulbecco's Modification Eagle's Minimum Essential Medium (DMEM, Life Technologies Inc.) supplemented with 10% fetal bovine serum (FBS; Gibco), 2 mm glutamine, 100 U/ml penicillin, and 100 μg/ml streptomycin, in a humidified atmosphere with 5% CO2 at 37° C. These cells were considered as young at PD30 or below and fully senescent at PD50 or above Senescence-associated β-galactosidase (SA-β-gal) assay: 2B S cells (PD45) grown in DMEM with/without 0.300 μg/ml DHB concentration were stained according to the method of Dimri with minor modifications (Dimri, Lee et al. 1995). […] The average value of the percentage of SA-β-gal-positive cells for each set of samples was calculated based on three independent experiments. […] FIG. 3a is a graph of effect of DHB at different concentrations on the proliferation of PD45 2BS cells and WI38 cells measured by MTT-assay. […] FIG. 3d is a graph of quantification of SA-β-gal-positive cell rate of 2BS cells. Quantification analysis of SA-β-gal in FIG. 3d is shown that DHB (about 9%) could delay or reverse the population senescence of 2BS cells remarkably, as compared to the PD 45-DMEM group (about 55%) and PD 45 group (about 60%).
# lamin A [2] = assay: lamin A mRNA expression by quantitative PCR in 2DD cells; format: cell-based, human; conditions: 5 μmol/L DHB
# Protocol: (§1) The AG01972 primary HGPS cell line was obtained from Coriell Cell Repositories (New Jersey, USA). Human dermal fibroblasts (HDF) were isolated from juvenile foreskins and termed 2DD was also used. AG01972 cells were cultured in T75 tissue culture treated flasks (Fisher, UK) containing Dulbecco's […]+Glutamax (Invitrogen, UK), supplemented with 15% fetal calf serum and 1% penicillin/streptomycin (Invitrogen) in an humidified, 37° C., 5% CO2/95% air incubator. The cells were passaged twice weekly. Cells were plated at a density of 2×10^5 into 9 cm dishes containing 13 mm diameter glass coverslips. Six hours after seeding, the AG01972 cells were treated with 0.1% dimethyl sulfoxide, different concentrations of DHB. DHB treatment was repeated 24 h after the initial treatment. The cells were analyzed after 48 h of treatment.
# (§2) Total RNA was isolated using a RNeasy Micro extraction kit according to the manufacturer's protocol. An on-column DNase I digestion was performed to avoid genomic DNA amplification. […] The quantitative PCR analysis was performed following the manufacturers' instructions.
# (§3) Quantification of gene expression was based on the DeltaCt Method and normalized on 18S expression. […]
# (§4) The protein levels of A-type lamins and mRNA expressions of lamin A and progerin were measured 48 h after DHB treatment on AG01972 cells. […]
# WI38 cells = assay: cell proliferation (CCK-8) of PD45 WI38 cells; format: cell-based, human
# Protocol: (§5) Human diploid fibroblast 2BS and WI38 cells were isolated from fetal lung fibroblast tissue. These cell lines were purchased from commercially available sources. Cells were grown in Dulbecco's Modification Eagle's Minimum Essential Medium (DMEM, Life Technologies Inc.) supplemented with 10% fetal bovine serum (FBS; Gibco), 2 mm glutamine, 100 U/ml penicillin, and 100 μg/ml streptomycin, in a humidified atmosphere with 5% CO2 at 37° C. These cells were considered as young at PD30 or below and fully senescent at PD50 or above Cell proliferation was assayed using the CCK-8 method. […] The absorbance values of each well were measured at day 0 (4 h after plating) and on days 1, 2, 3, 4, 5, and 6. […] At the indicated points, cells were harvested with 10% CCK-8 for one hour, and the absorbance was measured at 490 nm. Each data point was measured five times, and each curve was repeated more than three times. […] FIG. 3a is a graph of effect of DHB at different concentrations on the proliferation of PD45 2BS cells and WI38 cells measured by […]. […] FIG. 3d is a graph of quantification of SA-β-gal-positive cell rate of 2BS cells. Quantification analysis of SA-β-gal in FIG. 3d is shown that DHB (about 9%) could delay or reverse the population senescence of 2BS cells remarkably, as compared to the PD 45-DMEM group (about 55%) and PD 45 group (about 60%).
# lamin A [3] = assay: lamin A protein level by western blot in AG01972 cells; format: cell-based, human; conditions: 5 μmol/L DHB
# Protocol: (§6) Whole-cell lysates of AG01972 cells and 2DD cells were collected, separated by SDS polyacrylamide gel electrophoresis, and transferred onto polyvinylidene fluoride membrane using the liquid transfer method. The blots were blocked in 10% skim milk in Tween 0.1% tris-buffered saline 1×1 h at room temperature. The membranes were incubated during the night at 4° C. Antigen-antibody binding was detected using horseradish peroxidase-conjugated species-specific secondary antibodies, followed by enhanced chemiluminescence western blotting detection reagents. The western blot results were quantified using ImageJ software. FIG. 2a is a graph of protein levels of lamin A and progerin in AG01972 cells of DHB supplemented group and non-supplemented group. FIG. 2b is a graph of protein levels of lamin A and progerin in 2DD cells of DHB supplemented group and non-supplemented group.
# lamin A [4] = assay: lamin A protein level by western blot in 2DD cells; format: cell-based, human; conditions: 5 μmol/L DHB
# Protocol: as §6
# [5] = compared with berberine (BBR), Feng et al. 2015; cited from earlier work
# progerin [6] = assay: progerin protein level by western blot in AG01972 cells; format: cell-based, human; conditions: 5 μmol/L DHB
# Protocol: as §6
# 2BS cells [7] = assay: cell proliferation (CCK-8) of PD45 2BS cells; format: cell-based, human
# Protocol: as §5
# progerin [8] = assay: progerin mRNA expression by quantitative PCR in AG01972 cells; format: cell-based, human; conditions: 48 h
# Protocol: as §1, §2, §3, §4
# lamin A [9] = assay: lamin A mRNA expression by quantitative PCR in AG01972 cells; format: cell-based, human; conditions: 48 h
# Protocol: as §1, §2, §3, §4
# [10] = different concentrations of DHB, normalized on 18S
smiles,measurement,setting,value
"COc1ccc2c(c1OC)CN1CCc3cc4c(cc3C1=C2)OCO4 [DHB, Dihydroberberine]",SA-β-gal-positive cell rate,2BS cells [1],about 9%
same,lamin A mRNA expression,lamin A [2],decrease in lamin A mRNA expression
same,optimum concentration for proliferation,"WI38 cells; PD45 WI38 cells, FIG. 3a",0.3 µg/mL
same,"effect on proliferation, time course","WI38 cells; WI38 (PD45) cells, 0.3 μg/ml, seven days of incubation",promoted proliferation
same,lamin A protein level (western blot) compared with untreated cells,lamin A [3],decrease in lamin A
same,lamin A protein level (western blot) compared with untreated cells,lamin A [4],decrease in lamin A
same,absorption,[5],improved absorption
same,oral bioavailability,[5],enhanced oral bioavailability
same,progerin protein content (western blot) compared with untreated cells,progerin [6],significant decrease in progerin content
same,"effect on proliferation, time course","2BS cells [7]; 2BS (PD45) cells, 0.3 μg/ml, seven days of incubation",promoted proliferation
same,optimum concentration for proliferation,"2BS cells [7]; PD45 2BS cells, FIG. 3a",0.3 µg/mL
same,concentration of maximum effect on progerin mRNA expression,progerin [8],5 µmol/L
same,progerin mRNA expression compared with untreated cells,progerin [8]; [10],dose-dependent decrease
same,concentration of maximum effect on lamin A mRNA expression,lamin A [9],5 µmol/L
same,lamin A mRNA expression compared with untreated cells,lamin A [9]; [10],dose-dependent decrease
